In US20230270713A1, “Administration of Resiniferatoxin For Treatment of Bladder Pain or Bladder Cancer” (Sorrento Therapeutics, Inc., priority 2020, published 2023):
“And” between values parts separate entries of the source, which are not always exact repeats. Identical values can stand only once.

How the values were obtained:
[1] = Plasma concentration of RTX (HPLC) after intravesical instillation in healthy cats; type: in vivo, cat
Protocol: To examine the effect of intravesical instillation of RTX on the bladder, 6 healthy cats, between the 2-5 years of age, were treated with either 5 (low dose), 25 (mid dose) or 50 mcg (high dose) of RTX (volume was 25 ml; concentrations were 0.2, 1, and 2 mcg/ml). These doses are considered equivalent to administration of 20, 100, or 200 mcg in a human with a volume of 100 ml. A seventh cat received saline only and served as the control. The bladders of the anesthetized cats were emptied and then flushed with sterile saline via a foley urinary catheter. Once the saline was removed, the treatment with RTX (test cats) or saline alone (control cat) was administered over 60 seconds and left in the bladder for 20 minutes.
The bladder of each cat was emptied and blood samples for pharmacokinetic analysis were collected pre-RTX treatment and at 0.5, 1, and 4 hours post RTX treatment.

bladder cancer (TCC) = experiment: Preliminary anti-cancer effect by bladder ultrasound in dogs with bladder cancer (Example D); type: in vivo, dog
Protocol: Dogs with bladder cancer were treated with RTX as follows. Under general anesthesia, RTX was infused directly into the bladder using a foley catheter. RTX remained in the bladder for 30 minutes before removal.
The primary endpoint was assessment of improvement of lower urinary tract signs with a 4-point lower urinary tract symptom scale (character of urination/degree of straining; frequency of urination (daytime); frequency of urination (nighttime); and blood in urine). The secondary endpoints were anti-cancer effect, as measured by bladder ultrasound, and quality of life.

[2] = test system: cats with FIC (Feline Idiopathic Cystitis); experiment: Cystitis Events Survey in cats with Feline Idiopathic Cystitis; type: in vivo, cat; conditions: for Cystitis Improvement ≥2 Point, cats n/N / Cystitis Improvement ≥3 Point, cats n/N / Cystitis Improvement ≥2 Point, percent of cats / Cystitis Improvement ≥3 Point, percent of cats: Day 28
Source text: The Cystitis Events Survey consists a 5-point scale, ranging from 0=normal cat to 5=very severe sign of cystitis. Clinical signs of cystitis included in this survey are: increased frequency of urination; straining while urinating; crying out/vocalizing while urinating; presence of blood in urine; urination outside of litter box; and increased grooming around perineum.
The use of the Cystitis Events Survey was exploratory, and no strict definition of success was applied to the results. However, and based on published literature, the results were described as follows: (1) percentage of cats per cohort with an average improvement of 2 or more points and no increase in any individual score on Day 28; and (2) percentage of cats per cohort with an average improvement of 3 or more points and no increase in any individual score on Day 28.
[…] Intravesical instillation: After the cat has reached an adequate anesthesia level, the perineal area was prepared using a standard aseptic technique. After preparation, a urinary catheter (type and size decided on a case by case basis) was placed using aseptic technique. Then, the urinary bladder was emptied and flushed with 20 ml of sterile saline. Once the flush solution was removed, the RTX solution was infused through the urinary catheter over 2 minutes. Once the total volume of the solution is infused, the solution was left in the urinary bladder for 20 min. At the end of this period the IVP (investigational veterinary product) solution was removed. Finally, the urinary catheter was removed, and the perineal area was flushed with 20 ml of saline. The total amount of solution removed from the bladder was recorded.
24 cats were treated and the cohorts and their respective IVP treatments are described in the table 9 below. The cohorts were populated and dosed sequentially. Cats enrolled in Cohorts 2, 3 and 4 were dosed at least 3 days after the previous cohort closed.

[3] = 6.25 μg (0.25 μg/mL), Day 0, n 6
[4] = 6.25 μg (0.25 μg/mL), Day 28, n 6
[5] = 12.5 μg (0.5 μg/mL), Day 0, n 6
[6] = 12.5 μg (0.5 μg/mL), Day 28, n 5
[7] = 12.5 μg (1.25 μg/mL), Day 0, n 6
[8] = 12.5 μg (1.25 μg/mL), Day 28, n 6

## C=C(C)[C@]12C[C@@H](C)[C@@]34O[C@](Cc5ccccc5)(O[C@@H]1[C@@H]3C=C(COC(=O)Cc1ccc(O)c(OC)c1)C[C@]1(O)C(=O)C(C)=C[C@@H]41)O2 [RTX, resiniferatoxin]
[1]; 5 mcg total intravesical, 0 h, individual cats
  Plasma concentration of RTX: BQL (BQL = Below the Quantifiable Limit (<50.0 pg/mL).)
[1]; 5 mcg total intravesical, 0.5 h, individual cats
  Plasma concentration of RTX: BQL (BQL = Below the Quantifiable Limit (<50.0 pg/mL).)
[1]; 5 mcg total intravesical, 1 h, individual cats
  Plasma concentration of RTX: BQL (BQL = Below the Quantifiable Limit (<50.0 pg/mL).)
[1]; 5 mcg total intravesical, 4 h, individual cats
  Plasma concentration of RTX: BQL (BQL = Below the Quantifiable Limit (<50.0 pg/mL).)
[1]; 25 mcg total intravesical, 0 h, individual cats
  Plasma concentration of RTX: BQL (BQL = Below the Quantifiable Limit (<50.0 pg/mL).)
[1]; 25 mcg total intravesical, 0.5 h, individual cats
  Plasma concentration of RTX: 55.5 pg/ml and 10.1* pg/ml
[1]; 25 mcg total intravesical, 1 h, individual cats
  Plasma concentration of RTX: BQL (BQL = Below the Quantifiable Limit (<50.0 pg/mL).)
[1]; 25 mcg total intravesical, 4 h, individual cats
  Plasma concentration of RTX: BQL (BQL = Below the Quantifiable Limit (<50.0 pg/mL).)
[1]; 50 mcg total intravesical, 0 h, individual cats
  Plasma concentration of RTX: BQL (BQL = Below the Quantifiable Limit (<50.0 pg/mL).)
[1]; 50 mcg total intravesical, 0.5 h, individual cats
  Plasma concentration of RTX: BQL (BQL = Below the Quantifiable Limit (<50.0 pg/mL).)
[1]; 50 mcg total intravesical, 1 h, individual cats
  Plasma concentration of RTX: BQL (BQL = Below the Quantifiable Limit (<50.0 pg/mL).)
[1]; 50 mcg total intravesical, 4 h, individual cats
  Plasma concentration of RTX: BQL (BQL = Below the Quantifiable Limit (<50.0 pg/mL).)
[1]; all 3 groups, all time points (0, 0.5, 1, 4 h) except 0.5 h (25, 50 mcg) and 1 h (25 mcg)
  Plasma levels of RTX: below 50 pg/mL
[1]; all groups, 4 hours
  RTX in plasma: below quantifiable levels
[1]; cat, plasma, other: intravesical instillation, 25 mcg, 25 mcg total intravesical, 1 h, individual cats
  concentration at 1 h: 0.0135 ng/mL
[1]; cat, plasma, other: intravesical instillation, 50 mcg, 50 mcg total intravesical, 0.5 h, individual cats
  concentration at 0.5 h: 0.00877 ng/mL
Bladder cancer (TCC); Case 03-01, 9.0 kg dog, 25 ug (2.8 ug/kg), Day 84
  Best overall tumor response: change in largest tumor diameter: −30%
Bladder cancer (TCC); Case 41-02, 38.8 kg dog, 50 ug (1.3 ug/kg) dosed twice 28 days apart, Day 28
  Best Overall Response: tumor volume: −24%
[2]; [3]
  cystitis events survey, Maximum: 18.0
  cystitis events survey, Mean: 13.00
  cystitis events survey, Median: 12.00
  cystitis events survey, Minimum: 10.0
[2]; [4]
  cystitis events survey, Maximum: 14.0
  cystitis events survey, Mean: 8.33
  cystitis events survey, Median: 8.00
  cystitis events survey, Minimum: 3.0
[2]; 6.25 μg/25 mL (Cohort 2)
  Cystitis Improvement ≥2 Point, cats n/N: 4/6
  Cystitis Improvement ≥3 Point, cats n/N: 2/6
[2]; [5]
  cystitis events survey, Maximum: 13.0
  cystitis events survey, Mean: 11.33
  cystitis events survey, Median: 11.00
  cystitis events survey, Minimum: 10.0
[2]; [6]
  cystitis events survey, Maximum: 7.0
  cystitis events survey, Mean: 5.20
  cystitis events survey, Median: 5.00
  cystitis events survey, Minimum: 3.0
[2]; [7]
  cystitis events survey, Maximum: 16.0
  cystitis events survey, Mean: 12.5
  cystitis events survey, Median: 12.50
  cystitis events survey, Minimum: 9.0
[2]; [8]
  cystitis events survey, Maximum: 8.0
  cystitis events survey, Mean: 5.33
  cystitis events survey, Median: 6.00
  cystitis events survey, Minimum: 3.0
[2]; 12.5 μg/10 mL (Cohort 4)
  Cystitis Improvement ≥2 Point, cats n/N: 6/6
  Cystitis Improvement ≥2 Point, percent of cats: (100%)
  Cystitis Improvement ≥3 Point, cats n/N: 6/6
  Cystitis Improvement ≥3 Point, percent of cats: (100%)
[2]; 12.5 μg/25 mL (Cohort 3)
  Cystitis Improvement ≥2 Point, cats n/N: 5/5
  Cystitis Improvement ≥2 Point, percent of cats: (100%)
  Cystitis Improvement ≥3 Point, cats n/N: 5/5
  Cystitis Improvement ≥3 Point, percent of cats: (100%)
[2]; 25 μg (1 μg/mL), Day 0, n 6
  cystitis events survey, Maximum: 22.0
  cystitis events survey, Mean: 16.67
  cystitis events survey, Median: 16.50
  cystitis events survey, Minimum: 11.0
[2]; 25 μg (1 μg/mL), Day 28, n 5
  cystitis events survey, Maximum: 7.0
  cystitis events survey, Mean: 4.40
  cystitis events survey, Median: 4.00
  cystitis events survey, Minimum: 2.0
[2]; 25 μg/25 mL (Cohort 1)
  Cystitis Improvement ≥2 Point, cats n/N: 4/5
  Cystitis Improvement ≥2 Point, percent of cats: (80%)
  Cystitis Improvement ≥3 Point, cats n/N: 4/5
  Cystitis Improvement ≥3 Point, percent of cats: (80%)
